These molecules were tested against BCL6 (Homo sapiens (Human), UniProt P41182) (assay: Immunofluorescence high content imaging of BCL6 degradation in T47D cells). Details: T47D cells.
Type: cell-based
Method in brief: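 BCL6 loss was quantified by high-content imaging (10×, 4 fields/well) after PFA fixation and anti-BCL6/Alexa-488 staining with Hoechst nuclear and CellMask counterstains. Compounds were applied for 3 days to T47D breast cancer cells in RPMI-10% FBS, 11 points, 3-fold steps, top 0.1 or 1 μM.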
`CCCCn1c(=O)c(OCC(=O)NC)cc2cc(Nc3nc(N4CCC[C@H](COc5cccc6c5C(=O)N(C5CCC(=O)NC5=O)C6=O)C4)ncc3Cl)ccc21` (stereo partly drawn) [compound 324, 2-{[1-butyl-6-({5-chloro-2-[(3S)-3-({[2-(2,6-dioxopiperidin-3-yl)-1,3-dioxo-2,3-dihydro-1H-isoindol-4-yl]oxy}methyl)piperidin-1-yl]pyrimidin-4-yl}amino)-2-oxo-1,2-dihydroquinolin-3-yl]oxy}-N-methylacetamide] gave a Dmax of 50 to 70% and an IC50 of less than 10 nM.
In the case of `CNC(=O)COc1cc2cc(Nc3nc(N4CCN(CC5CCN(c6cccc(C(=O)NC7CCC(=O)NC7=O)c6OC)CC5)CC4)ncc3Cl)ccc2n(C)c1=O` (centres unmarked) [compound 325, 3-[4-({4-[5-chloro-4-({1-methyl-3-[(methylcarbamoyl)methoxy]-2-oxo-1,2-dihydroquinolin-6-yl}amino)pyrimidin-2-yl]piperazin-1-yl}methyl)piperidin-1-yl]-N-(2,6-dioxopiperidin-3-yl)-2-methoxybenzamide], the Dmax was 50 to 70% and the IC50 was less than 10 nM.
`CCN(C1CCN(c2ccc3c(c2)C(=O)N(C2CCC(=O)NC2=O)C3=O)CC1)C1CCN(c2ncc(Cl)c(Nc3ccc4c(c3)cc(OCC(=O)NC)c(=O)n4C)n2)CC1` (centres unmarked) [compound 326, 2-{[6-({5-chloro-2-[4-({1-[2-(2,6-dioxopiperidin-3-yl)-1,3-dioxo-2,3-dihydro-1H-isoindol-5-yl]piperidin-4-yl}(ethyl)amino)piperidin-1-yl]pyrimidin-4-yl}amino)-1-methyl-2-oxo-1,2-dihydroquinolin-3-yl]oxy}-N-methylacetamide] was tested, and the Dmax was 50 to 70% and the IC50 was 10 to 50 nM.
`CCCN(C1CCN(c2ccc3c(c2)C(=O)N(C2CCC(=O)NC2=O)C3=O)CC1)C1CCN(c2ncc(Cl)c(Nc3ccc4c(c3)cc(OCC(=O)NC)c(=O)n4C)n2)CC1` (centres unmarked) [compound 327, 2-{[6-({5-chloro-2-[4-({1-[2-(2,6-dioxopiperidin-3-yl)-1,3-dioxo-2,3-dihydro-1H-isoindol-5-yl]piperidin-4-yl}(propyl)amino)piperidin-1-yl]pyrimidin-4-yl}amino)-1-methyl-2-oxo-1,2-dihydroquinolin-3-yl]oxy}-N-methylacetamide] gave a Dmax of 50 to 70% and an IC50 of 10 to 50 nM.
Work on `CCn1c(=O)c(OCC(=O)NC)cc2cc(Nc3nc(N4CCC(OC5CN(C6CN(c7ccc8c(c7)C(=O)N(C7CCC(=O)NC7=O)C8=O)C6)C5)CC4)ncc3Cl)ccc21` (centres unmarked) [compound 328, 2-{[6-({5-chloro-2-[4-({1′-[2-(2,6-dioxopiperidin-3-yl)-1,3-dioxo-2,3-dihydro-1H-isoindol-5-yl]-[1,3′-biazetidin]-3-yl}oxy)piperidin-1-yl]pyrimidin-4-yl}amino)-1-ethyl-2-oxo-1,2-dihydroquinolin-3-yl]oxy}-N-methylacetamide] yielded a Dmax of 50 to 70% and an IC50 of less than 10 nM.
`CCn1c(=O)c(OCC(=O)NC)cc2cc(Nc3nc(N4CCC(OCC5CCN(c6ccc7c(c6)C(=O)N(C6CCC(=O)NC6=O)C7=O)CC5)CC4)ncc3Cl)ccc21` (centres unmarked) [compound 329, 2-{[6-({5-chloro-2-[4-({1-[2-(2,6-dioxopiperidin-3-yl)-1,3-dioxo-2,3-dihydro-1H-isoindol-5-yl]piperidin-4-yl}methoxy)piperidin-1-yl]pyrimidin-4-yl}amino)-1-ethyl-2-oxo-1,2-dihydroquinolin-3-yl]oxy}-N-methylacetamide] showed a Dmax of less than 50% and an IC50 of less than 10 nM.
`CCn1c(=O)c(OCC(=O)NC)cc2cc(Nc3nc(N4CCC(OCC5CCN(c6cccc7c6C(=O)N(C6CCC(=O)NC6=O)C7=O)CC5)CC4)ncc3Cl)ccc21` (centres unmarked) [compound 330, 2-{[6-({5-chloro-2-[4-({1-[2-(2,6-dioxopiperidin-3-yl)-1,3-dioxo-2,3-dihydro-1H-isoindol-4-yl]piperidin-4-yl}methoxy)piperidin-1-yl]pyrimidin-4-yl}amino)-1-ethyl-2-oxo-1,2-dihydroquinolin-3-yl]oxy}-N-methylacetamide] showed a Dmax of 50 to 70% and an IC50 of less than 10 nM.
Work on `CCn1c(=O)c(OCC(=O)NC)cc2cc(Nc3nc(N4CCC(COC5CCN(c6ccc7c(c6)C(=O)N(C6CCC(=O)NC6=O)C7=O)CC5)CC4)ncc3Cl)ccc21` (centres unmarked) [compound 331, 2-({6-[(5-chloro-2-{4-[({1-[2-(2,6-dioxopiperidin-3-yl)-1,3-dioxo-2,3-dihydro-1H-isoindol-5-yl]piperidin-4-yl}oxy)methyl]piperidin-1-yl}pyrimidin-4-yl)amino]-1-ethyl-2-oxo-1,2-dihydroquinolin-3-yl}oxy)-N-methylacetamide] yielded a Dmax of less than 50% and an IC50 of less than 10 nM.
Molecule `CCn1c(=O)c(OCC(=O)NC)cc2cc(Nc3nc(N4CCC(COC5CCN(c6cccc7c6C(=O)N(C6CCC(=O)NC6=O)C7=O)CC5)CC4)ncc3Cl)ccc21` (centres unmarked) [compound 332, 2-({6-[(5-chloro-2-{4-[({1-[2-(2,6-dioxopiperidin-3-yl)-1,3-dioxo-2,3-dihydro-1H-isoindol-4-yl]piperidin-4-yl}oxy)methyl]piperidin-1-yl}pyrimidin-4-yl)amino]-1-ethyl-2-oxo-1,2-dihydroquinolin-3-yl}oxy)-N-methylacetamide] has a Dmax of 50 to 70% and an IC50 of less than 10 nM.
Work on `CNC(=O)COc1cc2cc(Nc3nc(N4CCN(CC5CCN(c6ccc7c(c6)C(=O)N(C6CCC(=O)NC6=O)C7=O)CC5)CC4)ncc3Cl)ccc2n(CCC2CC2)c1=O` (centres unmarked) [compound 333, 2-{[6-({5-chloro-2-[4-({1-[2-(2,6-dioxopiperidin-3-yl)-1,3-dioxo-2,3-dihydro-1H-isoindol-5-yl]piperidin-4-yl}methyl)piperazin-1-yl]pyrimidin-4-yl}amino)-1-(2-cyclopropylethyl)-2-oxo-1,2-dihydroquinolin-3-yl]oxy}-N-methylacetamide] yielded a Dmax of 50 to 70% and an IC50 of less than 10 nM.
In the case of `CNC(=O)COc1cc2cc(Nc3nc(N4CCC[C@H](COc5cccc6c5C(=O)N(C5CCC(=O)NC5=O)C6=O)C4)ncc3Cl)ccc2n(CCC2CC2)c1=O` (stereo partly drawn) [compound 334, 2-{[6-({5-chloro-2-[(3S)-3-({[2-(2,6-dioxopiperidin-3-yl)-1,3-dioxo-2,3-dihydro-1H-isoindol-4-yl]oxy}methyl)piperidin-1-yl]pyrimidin-4-yl}amino)-1-(2-cyclopropylethyl)-2-oxo-1,2-dihydroquinolin-3-yl]oxy}-N-methylacetamide], the Dmax was no less than 70% and the IC50 was less than 10 nM.
Work on `CNC(=O)COc1cc2cc(Nc3nc(N4CCN(C(C)C5CCN(c6ccc7c(c6)C(=O)N(C6CCC(=O)NC6=O)C7=O)CC5)CC4)ncc3Cl)ccc2n(C)c1=O` (centres unmarked) [compound 335, 2-{[6-({5-chloro-2-[4-(1-{1-[2-(2,6-dioxopiperidin-3-yl)-1,3-dioxo-2,3-dihydro-1H-isoindol-5-yl]piperidin-4-yl}ethyl)piperazin-1-yl]pyrimidin-4-yl}amino)-1-methyl-2-oxo-1,2-dihydroquinolin-3-yl]oxy}-N-methylacetamide] yielded a Dmax of 50 to 70% and an IC50 of less than 10 nM.
Molecule `CNC(=O)COc1cc2cc(Nc3nc(N4CCC[C@H](COc5cccc6c5C(=O)N(C5CCC(=O)NC5=O)C6=O)C4)ncc3Cl)ccc2n(C2CC2)c1=O` (stereo partly drawn) [compound 336, 2-{[6-({5-chloro-2-[(3S)-3-({[2-(2,6-dioxopiperidin-3-yl)-1,3-dioxo-2,3-dihydro-1H-isoindol-4-yl]oxy}methyl)piperidin-1-yl]pyrimidin-4-yl}amino)-1-cyclopropyl-2-oxo-1,2-dihydroquinolin-3-yl]oxy}-N-methylacetamide] has a Dmax of 50 to 70% and an IC50 of 10 to 50 nM.
Work on `CCC(C1CCN(c2ccc3c(c2)C(=O)N(C2CCC(=O)NC2=O)C3=O)CC1)N1CCN(c2ncc(Cl)c(Nc3ccc4c(c3)cc(OCC(=O)NC)c(=O)n4C)n2)CC1` (centres unmarked) [compound 337, 2-{[6-({5-chloro-2-[4-(1-{1-[2-(2,6-dioxopiperidin-3-yl)-1,3-dioxo-2,3-dihydro-1H-isoindol-5-yl]piperidin-4-yl}propyl)piperazin-1-yl]pyrimidin-4-yl}amino)-1-methyl-2-oxo-1,2-dihydroquinolin-3-yl]oxy}-N-methylacetamide] yielded a Dmax of less than 50%.
In the case of `CCCC(C1CCN(c2ccc3c(c2)C(=O)N(C2CCC(=O)NC2=O)C3=O)CC1)N1CCN(c2ncc(Cl)c(Nc3ccc4c(c3)cc(OCC(=O)NC)c(=O)n4C)n2)CC1` (centres unmarked) [compound 338, 2-{[6-({5-chloro-2-[4-(1-{1-[2-(2,6-dioxopiperidin-3-yl)-1,3-dioxo-2,3-dihydro-1H-isoindol-5-yl]piperidin-4-yl}butyl)piperazin-1-yl]pyrimidin-4-yl}amino)-1-methyl-2-oxo-1,2-dihydroquinolin-3-yl]oxy}-N-methylacetamide], the Dmax was less than 50% and the IC50 was less than 10 nM.
With `CNC(=O)COc1cc2cc(Nc3nc(N4CCN(CC5(F)CCN(c6ccc7c(c6)C(=O)N(C6CCC(=O)NC6=O)C7=O)CC5)CC4)ncc3Cl)ccc2n(C)c1=O` (centres unmarked) [compound 339, 2-{[6-({5-chloro-2-[4-({1-[2-(2,6-dioxopiperidin-3-yl)-1,3-dioxo-2,3-dihydro-1H-isoindol-5-yl]-4-fluoropiperidin-4-yl}methyl)piperazin-1-yl]pyrimidin-4-yl}amino)-1-methyl-2-oxo-1,2-dihydroquinolin-3-yl]oxy}-N-methylacetamide] the Dmax was 50 to 70% and the IC50 was less than 10 nM.
`CNC(=O)COc1cc2cc(Nc3nc(N4CCC(F)(CN5CCN(c6ccc7c(c6)C(=O)N(C6CCC(=O)NC6=O)C7=O)CC5)CC4)ncc3Cl)ccc2n(C)c1=O` (centres unmarked) [compound 340, 2-{[6-({5-chloro-2-[4-({4-[2-(2,6-dioxopiperidin-3-yl)-1,3-dioxo-2,3-dihydro-1H-isoindol-5-yl]piperazin-1-yl}methyl)-4-fluoropiperidin-1-yl]pyrimidin-4-yl}amino)-1-methyl-2-oxo-1,2-dihydroquinolin-3-yl]oxy}-N-methylacetamide] gave a Dmax of 50 to 70% and an IC50 of less than 10 nM.
For `CNC(=O)COc1cc2cc(Nc3nc(N4CCN(CC5(F)CCN(c6cccc7c6C(=O)N(C6CCC(=O)NC6=O)C7=O)CC5)CC4)ncc3Cl)ccc2n(C)c1=O` (centres unmarked) [compound 341, 2-{[6-({5-chloro-2-[4-({1-[2-(2,6-dioxopiperidin-3-yl)-1,3-dioxo-2,3-dihydro-1H-isoindol-4-yl]-4-fluoropiperidin-4-yl}methyl)piperazin-1-yl]pyrimidin-4-yl}amino)-1-methyl-2-oxo-1,2-dihydroquinolin-3-yl]oxy}-N-methylacetamide], the Dmax was no less than 70% and the IC50 was less than 10 nM.
